This is an account of results in patent publication US10004701B2, “Methods and compositions for treating infection” (UNIVERSITY OF ROCHESTER, priority 2012, dated 2018).

What all share (assay): AK assay 384-well format, Prestwick library screening
One assay has as its system K. pneumoniae. Type of assay: cell-based, Klebsiella pneumoniae. The note with it: 50 μM final drug concentration; for fold induction at 50 µM: Klebsiella pneumoniae, 3 h.
The test system of assay [1] is A. baumannii strain 98-37-09. In kind it is cell-based, Acinetobacter baumannii. The note with it: 50 μM final drug concentration; for fold induction at 50 µM: Acinetobacter baumannii, 983709, 3 h.
In another assay the test system is E. cloacae. In kind it is cell-based, Enterobacter cloacae. As to conditions: 50 μM final drug concentration; for fold induction at 50 µM: Enterobacter cloacae, 3 h.
For a further assay, the system named is E. faecium. In kind it is cell-based, Enterococcus faecium. The note with it: 50 μM final drug concentration; for fold induction at 50 µM: Enterococcus faecium, 3 h.
Another assay concerns P. aeruginosa. Type of assay: cell-based, Pseudomonas aeruginosa. The note with it: 50 μM final drug concentration; for fold induction at 50 µM: Pseudomonas aeruginosa, 3 h.
Assay [2] has as its system S. aureus strain USA300-0114. In kind it is cell-based, Staphylococcus aureus. As to conditions: 50 μM final drug concentration; for fold induction at 50 µM: Staphylococcus aureus, USA300, 3 h.
In a further assay the test system is E. coli. Type of assay: cell-based, Escherichia coli. As to conditions: 50 μM final drug concentration; for fold induction at 50 µM: Escherichia coli, 3 h.
Where [3] appears, read: planktonic K. pneumoniae, positive cutoff 3-fold increase, read-out: AK-based Prestwick library screening result, K. pneumoniae (fold increase in extracellular AK activity).
[4] abbreviates: planktonic A. baumannii, positive cutoff 3-fold increase, read-out: AK-based Prestwick library screening result, A. baumannii (fold increase in extracellular AK activity).
Where [5] appears, read: planktonic E. cloacae, positive cutoff 3-fold increase, read-out: AK-based Prestwick library screening result, E. cloacae (fold increase in extracellular AK activity).
Where [6] appears, read: planktonic E. faecium, positive cutoff 3-fold increase, read-out: AK-based Prestwick library screening result, E. faecium (fold increase in extracellular AK activity).
[7] abbreviates: planktonic P. aeruginosa, positive cutoff 3-fold increase, read-out: AK-based Prestwick library screening result, P. aeruginosa (fold increase in extracellular AK activity).
The mark [8] stands for this setting: planktonic S. aureus, positive cutoff 3-fold increase, read-out: AK-based Prestwick library screening result, S. aureus (fold increase in extracellular AK activity).
The mark [9] stands for this setting: planktonic E. coli, positive cutoff 3-fold increase, read-out: AK-based Prestwick library screening result, E. coli (fold increase in extracellular AK activity).
[10] abbreviates: planktonic K. pneumoniae, 384-well, cutoff for positive-scoring molecules 3-fold increase, read-out: AK-based Prestwick Library Screening Results: K. pneumoniae (increase in extracellular AK activity).
Where [11] appears, read: planktonic A. baumannii, 384-well, cutoff for positive-scoring molecules 3-fold increase, read-out: AK-based Prestwick Library Screening Results: A. baumannii (increase in extracellular AK activity).
Where [12] appears, read: planktonic E. cloacae, 384-well, cutoff for positive-scoring molecules 3-fold increase, read-out: AK-based Prestwick Library Screening Results: E. cloacae (increase in extracellular AK activity).
[13] abbreviates: planktonic E. faecium, 384-well, cutoff for positive-scoring molecules 3-fold increase, read-out: AK-based Prestwick Library Screening Results: E. faecium (increase in extracellular AK activity).
Where [14] appears, read: planktonic P. aeruginosa, 384-well, cutoff for positive-scoring molecules 3-fold increase, read-out: AK-based Prestwick Library Screening Results: P. aeruginosa (increase in extracellular AK activity).
Where [15] appears, read: planktonic S. aureus, 384-well, cutoff for positive-scoring molecules 3-fold increase, read-out: AK-based Prestwick Library Screening Results: S. aureus (increase in extracellular AK activity).
The mark [16] stands for this setting: planktonic E. coli, 384-well, cutoff for positive-scoring molecules 3-fold increase, read-out: AK-based Prestwick Library Screening Results: E. coli (increase in extracellular AK activity).
Where [17] appears, read: planktonic, cutoff for positive 3-fold increase.
Where [18] appears, read: cutoff for positive-scoring molecules 3-fold increase, read-out: AK-based Prestwick Library Screening Results, K. pneumoniae (fold increase in extracellular AK activity).
Setting [19] is: cutoff for positive-scoring molecules 3-fold increase, read-out: AK-based Prestwick Library Screening Results, A. baumannii (fold increase in extracellular AK activity).
Where [20] appears, read: cutoff for positive-scoring molecules 3-fold increase, read-out: AK-based Prestwick Library Screening Results, E. cloacae (fold increase in extracellular AK activity).
Where [21] appears, read: cutoff for positive-scoring molecules 3-fold increase, read-out: AK-based Prestwick Library Screening Results, E. faecium (fold increase in extracellular AK activity).
Setting [22] is: cutoff for positive-scoring molecules 3-fold increase, read-out: AK-based Prestwick Library Screening Results, P. aeruginosa (fold increase in extracellular AK activity).
The mark [23] stands for this setting: cutoff for positive-scoring molecules 3-fold increase, read-out: AK-based Prestwick Library Screening Results, S. aureus (fold increase in extracellular AK activity).
Where [24] appears, read: cutoff for positive-scoring molecules 3-fold increase, read-out: AK-based Prestwick Library Screening Results, E. coli (fold increase in extracellular AK activity).
The mark [25] stands for this setting: cutoff for positive-scoring molecules 3-fold increase.

Counter-ions that a name gives are not always drawn. Like-named read-outs stand apart in the source and are kept apart here.

With `CNC1(C)C2CCC(C2)C1(C)C` (centres unmarked) [Mecamylamine hydrochloride], the fold induction at 50 µM was determined as 1 in the assay with K. pneumoniae (setting [3]); 1.2 in assay [1] (setting [4]); 1.6 in the assay on E. cloacae (setting [5]); 1.1 in the assay with E. faecium (setting [6]); 1.1 in the assay with P. aeruginosa (setting [7]); 1.4 in assay [2] (setting [8]). Besides, the fold induction at 50 µM in the assay on E. coli (setting [9]) worked out at 1.4.

Consider `CCCC(=O)Nc1ccc(OCC(O)CNC(C)C)c(C(C)=O)c1` (centres unmarked) [Acebutolol hydrochloride], for which the fold induction at 50 µM stood at 0.9 with K. pneumoniae (setting [10]); 1.3 in assay [1] (setting [11]); 1.2 with E. cloacae (setting [12]); 1.1 in the assay on E. faecium (setting [13]); 1.1 in the assay on P. aeruginosa (setting [14]); 1.1 in assay [2] (setting [15]). The fold induction at 50 µM in the assay on E. coli (setting [16]) was determined as 1.3.

In the case of `C[C@]12C=CC(=O)C=C1CC[C@@H]1[C@@H]2C(=O)C[C@@]2(C)[C@H]1CC[C@]2(O)C(=O)CO` [Prednisone], the fold induction at 50 µM in the assay on K. pneumoniae (setting [10]) worked out at 0.9; in assay [1] (setting [11]), 1.2; in the assay on E. cloacae (setting [12]) it was 1.4; with E. faecium (setting [13]) it was 0.9; in the assay with P. aeruginosa (setting [14]), 0.9; in assay [2] (setting [15]) it was 1.1. In the assay with E. coli (setting [16]), the fold induction at 50 µM came out at 1.2.

In the case of `Nc1ccn([C@H]2CC[C@@H](CO)O2)c(=O)n1` [Zalcitabine], the fold induction at 50 µM turned out to be 1.1 with K. pneumoniae (setting [3]); 1.2 in assay [1] (setting [4]); 1.8 in the assay with E. cloacae (setting [5]); 1.1 in the assay with E. faecium (setting [6]); 1 in the assay with P. aeruginosa (setting [7]); 1.1 in assay [2] (setting [8]). In the assay on E. coli (setting [9]), the fold induction at 50 µM was 1.3.

As for `C[N+]1(C)CCC[C@H]1C(=O)[O-].Cl` [Stachydrine hydrochloride], the “AK-based Prestwick Library Screening Results, K. pneumoniae (fold increase in extracellular AK activity)” value in the assay with K. pneumoniae (setting [17]) is given as 1.1. Further, the “AK-based Prestwick Library Screening Results, A. baumannii (fold increase in extracellular AK activity)” value in assay [1] (setting [17]) is given as 1.4. Also, the “AK-based Prestwick Library Screening Results, E. cloacae (fold increase in extracellular AK activity)” value in the assay with E. cloacae (setting [17]) is 1.5. The “AK-based Prestwick Library Screening Results, E. faecium (fold increase in extracellular AK activity)” value in the assay with E. faecium (setting [17]) was determined as 1.0. Further, in the assay with P. aeruginosa (setting [17]), the “AK-based Prestwick Library Screening Results, P. aeruginosa (fold increase in extracellular AK activity)” value came to 1.2. Moreover, the “AK-based Prestwick Library Screening Results, S. aureus (fold increase in extracellular AK activity)” value in assay [2] (setting [17]) is recorded as 1.0. Further, the “AK-based Prestwick Library Screening Results, E. coli (fold increase in extracellular AK activity)” value in the assay with E. coli (setting [17]) is 1.4.

Consider `CCC(=O)[C@@]1(C)[C@H](C)C[C@H]2[C@@H]3CCC4=CC(=O)C=C[C@]4(C)[C@H]3[C@@H](O)C[C@@]21C` [Rimexolone], for which the fold induction at 50 µM turned out to be 0.8 with K. pneumoniae (setting [3]); 0.9 in assay [1] (setting [4]); 4.9 in the assay with E. cloacae (setting [5]); 0.9 in the assay on E. faecium (setting [6]); 1 in the assay on P. aeruginosa (setting [7]); 1.1 in assay [2] (setting [8]). The fold induction at 50 µM in the assay with E. coli (setting [9]) came out at 0.9.

On to `Cc1cc(C(=O)NNCc2ccccc2)no1` [Isocarboxazid], for which the fold induction at 50 µM was found to be 1.1 in the assay with K. pneumoniae (setting [18]); 1.1 in assay [1] (setting [19]); 1.5 in the assay with E. cloacae (setting [20]); 1 in the assay on E. faecium (setting [21]); 1.1 with P. aeruginosa (setting [22]); 1.5 in assay [2] (setting [23]). Besides, in the assay on E. coli (setting [24]), the fold induction at 50 µM was found to be 1.1.

Consider `O=C(NCC(O)CO)c1c(I)c(C(=O)NCC(O)CO)c(I)c(N(CCO)C(=O)CO)c1I` (centres unmarked) [Ioversol], for which the fold induction at 50 µM in the assay with K. pneumoniae (setting [18]) is 1.2; in assay [1] (setting [19]) it was 1.3; in the assay on E. cloacae (setting [20]) it was 1.4; with E. faecium (setting [21]), 1; in the assay on P. aeruginosa (setting [22]) it was 1.2; in assay [2] (setting [23]), 1.2. The fold induction at 50 µM with E. coli (setting [24]) was determined as 1.2.

With Cyanocobalamin, in the assay with K. pneumoniae (planktonic K. pneumoniae, cutoff for positive-scoring molecules 3-fold increase), the “AK-based Prestwick Library Screening Results, K. pneumoniae (increase in extracellular AK activity)” value was found to be 0.6. The “AK-based Prestwick Library Screening Results, A. baumannii (increase in extracellular AK activity)” value in assay [1] (planktonic A. baumannii, cutoff for positive-scoring molecules 3-fold increase) is recorded as 0.8. The “AK-based Prestwick Library Screening Results, E. cloacae (increase in extracellular AK activity)” value in the assay on E. cloacae (planktonic E. cloacae, cutoff for positive-scoring molecules 3-fold increase) amounted to 1.2. Moreover, in the assay on E. faecium (planktonic E. faecium, cutoff for positive-scoring molecules 3-fold increase), the “AK-based Prestwick Library Screening Results, E. faecium (increase in extracellular AK activity)” value was found to be 0.8. Moreover, the “AK-based Prestwick Library Screening Results, P. aeruginosa (increase in extracellular AK activity)” value in the assay on P. aeruginosa (planktonic P. aeruginosa, cutoff for positive-scoring molecules 3-fold increase) was 0.7. Also, in assay [2] (planktonic S. aureus, cutoff for positive-scoring molecules 3-fold increase), the “AK-based Prestwick Library Screening Results, S. aureus (increase in extracellular AK activity)” value was found to be 0.5. In addition, in the assay with E. coli (planktonic E. coli, […]), the “AK-based Prestwick Library Screening Results, E. coli (increase in extracellular AK activity)” value is given as 0.8.

Take `CCC1(C)CC(=O)NC(=O)C1` [Bemegride]: the fold induction at 50 µM in the assay on K. pneumoniae (planktonic, […], read-out: AK-based Prestwick Library Screening Results, K. pneumoniae (fold increase in extracellular AK activity)) amounted to 0.6; in assay [1] (planktonic, […], read-out: AK-based Prestwick Library Screening Results, A. baumannii (fold increase in extracellular AK activity)) it was 0.7; in the assay on E. cloacae (planktonic, […], read-out: AK-based Prestwick Library Screening Results, E. cloacae (fold increase in extracellular AK activity)) it was 0.6; in the assay with E. faecium (planktonic, […], read-out: AK-based Prestwick Library Screening Results, E. faecium (fold increase in extracellular AK activity)), 0.9; in the assay with P. aeruginosa (planktonic, […], read-out: AK-based Prestwick Library Screening Results, P. aeruginosa (fold increase in extracellular AK activity)), 0.6; in assay [2] (planktonic, […], read-out: AK-based Prestwick Library Screening Results, S. aureus (fold increase in extracellular AK activity)) it was 0.7. The fold induction at 50 µM in the assay with E. coli (planktonic, […], read-out: AK-based Prestwick Library Screening Results, E. coli (fold increase in extracellular AK activity)) was 0.6.

As for `C[N+](C)(CCOc1ccccc1)Cc1ccccc1.O=C([O-])c1cc2ccccc2cc1O` [Bephenium hydroxynaphthoate], the “AK-based Prestwick Library Screening Results, K. pneumoniae (fold increase in extracellular AK activity)” value in the assay with K. pneumoniae (setting [25]) is 1.0. In addition, the “AK-based Prestwick Library Screening Results, A. baumannii (fold increase in extracellular AK activity)” value in assay [1] (setting [25]) was 0.9. Besides, in the assay with E. cloacae (setting [25]), the “AK-based Prestwick Library Screening Results, E. cloacae (fold increase in extracellular AK activity)” value was 2.0. In addition, the “AK-based Prestwick Library Screening Results, E. faecium (fold increase in extracellular AK activity)” value in the assay with E. faecium (setting [25]) is on record as 1.0. Further, in the assay with P. aeruginosa (setting [25]), the “AK-based Prestwick Library Screening Results, P. aeruginosa (fold increase in extracellular AK activity)” value stood at 1.0. Moreover, the “AK-based Prestwick Library Screening Results, S. aureus (fold increase in extracellular AK activity)” value in assay [2] (setting [25]) is reported as 1.2. In the assay on E. coli (setting [25]), the “AK-based Prestwick Library Screening Results, E. coli (fold increase in extracellular AK activity)” value is 1.2.
